According to ChEMBL document CHEMBL4842376, “Design, synthesis and biological evaluation of novel hybrids targeting mTOR and HDACs for potential treatment of hepatocellular carcinoma” (Eur J Med Chem, 2021):
pIC50: −log10 of the molar value.

Legend:
MCF7 = assay: cells; format: functional, cell-based; details: Homo sapiens, MCF7, 72 h
Description: Antiproliferative activity against human MCF7 cells assessed as inhibition of cell growth measured after 72 hrs by MTT assay

A549 = assay: cells; format: functional, cell-based; details: Homo sapiens, A549, 72 h
Description: Antiproliferative activity against human A549 cells assessed as inhibition of cell growth measured after 72 hrs by MTT assay

HCT-116 = assay: cells; format: functional, cell-based; details: Homo sapiens, HCT-116, 72 h
Description: Antiproliferative activity against human HCT-116 cells assessed as inhibition of cell growth measured after 72 hrs by MTT assay

HeLa = assay: cells; format: functional, cell-based; details: Homo sapiens, 72 h
Description: Antiproliferative activity against human HeLa cells assessed as inhibition of cell growth measured after 72 hrs by MTT assay

CNE-2 = assay: cells; format: functional, cell-based; details: Homo sapiens, CNE-2, 72 h
Description: Antiproliferative activity against human CNE-2 cells assessed as inhibition of cell growth measured after 72 hrs by MTT assay

HepG2 = assay: Antiproliferative activity against human HepG2 cells assessed as inhibition of cell growth measured after 72 hrs by MTT assay; format: functional, cell-based; details: HepG2, 72 h
MDA-MB-231 = assay: cells; format: functional, cell-based; details: Homo sapiens, MDA-MB-231, 72 h
Description: Antiproliferative activity against human MDA-MB-231 cells assessed as inhibition of cell growth measured after 72 hrs by MTT assay

Huh-7 = assay: cells; format: functional, cell-based; details: Homo sapiens, Huh-7, 72 h
Description: Antiproliferative activity against human Huh-7 cells assessed as inhibition of cell growth measured after 72 hrs by MTT assay

PLC-PRF-5 = assay: Antiproliferative activity against human PLC-PRF-5 cells assessed as inhibition of cell growth measured after 72 hrs by MTT assay; format: functional, cell-based; details: PLC-PRF-5, 72 h
[1] = biological target: Serine/threonine-protein kinase mTOR (Homo sapiens, UniProt P42345); assay: Inhibition of mTOR (unknown origin) at 1 uM using U-Light-4E-BP1 peptide as a substrate in the presence of ATP incubated for 30 mins by Lance ultra assay relative to control
Hep 3B2 = assay: cells; format: functional, cell-based; details: Homo sapiens, Hep3B, 72 h
Description: Antiproliferative activity against human Hep3B cells assessed as inhibition of cell growth measured after 72 hrs by MTT assay

SK-HEP1 = assay: cells; format: functional, cell-based; details: Homo sapiens, SK-HEP1, 72 h
Description: Antiproliferative activity against human SK-HEP1 cells assessed as inhibition of cell growth measured after 72 hrs by MTT assay

SNU-423 = assay: Antiproliferative activity against human SNU-423 cells assessed as inhibition of cell growth measured after 72 hrs by MTT assay; format: functional, cell-based; details: SNU-423, 72 h
Bel-7402 = assay: Antiproliferative activity against human Bel-7402 cells assessed as inhibition of cell growth measured after 72 hrs by MTT assay; format: functional, cell-based; details: Bel-7402, 72 h
[2] = biological target: T1, Protein deacetylase HDAC6 (Homo sapiens) (UniProt Q9UBN7); assay: Inhibition of HDAC6 (unknown origin) at 1 uM using Ac-peptide as a substrate pretreated for 15 mins followed by substrate addition relative to control
T1 sequence (whole entry): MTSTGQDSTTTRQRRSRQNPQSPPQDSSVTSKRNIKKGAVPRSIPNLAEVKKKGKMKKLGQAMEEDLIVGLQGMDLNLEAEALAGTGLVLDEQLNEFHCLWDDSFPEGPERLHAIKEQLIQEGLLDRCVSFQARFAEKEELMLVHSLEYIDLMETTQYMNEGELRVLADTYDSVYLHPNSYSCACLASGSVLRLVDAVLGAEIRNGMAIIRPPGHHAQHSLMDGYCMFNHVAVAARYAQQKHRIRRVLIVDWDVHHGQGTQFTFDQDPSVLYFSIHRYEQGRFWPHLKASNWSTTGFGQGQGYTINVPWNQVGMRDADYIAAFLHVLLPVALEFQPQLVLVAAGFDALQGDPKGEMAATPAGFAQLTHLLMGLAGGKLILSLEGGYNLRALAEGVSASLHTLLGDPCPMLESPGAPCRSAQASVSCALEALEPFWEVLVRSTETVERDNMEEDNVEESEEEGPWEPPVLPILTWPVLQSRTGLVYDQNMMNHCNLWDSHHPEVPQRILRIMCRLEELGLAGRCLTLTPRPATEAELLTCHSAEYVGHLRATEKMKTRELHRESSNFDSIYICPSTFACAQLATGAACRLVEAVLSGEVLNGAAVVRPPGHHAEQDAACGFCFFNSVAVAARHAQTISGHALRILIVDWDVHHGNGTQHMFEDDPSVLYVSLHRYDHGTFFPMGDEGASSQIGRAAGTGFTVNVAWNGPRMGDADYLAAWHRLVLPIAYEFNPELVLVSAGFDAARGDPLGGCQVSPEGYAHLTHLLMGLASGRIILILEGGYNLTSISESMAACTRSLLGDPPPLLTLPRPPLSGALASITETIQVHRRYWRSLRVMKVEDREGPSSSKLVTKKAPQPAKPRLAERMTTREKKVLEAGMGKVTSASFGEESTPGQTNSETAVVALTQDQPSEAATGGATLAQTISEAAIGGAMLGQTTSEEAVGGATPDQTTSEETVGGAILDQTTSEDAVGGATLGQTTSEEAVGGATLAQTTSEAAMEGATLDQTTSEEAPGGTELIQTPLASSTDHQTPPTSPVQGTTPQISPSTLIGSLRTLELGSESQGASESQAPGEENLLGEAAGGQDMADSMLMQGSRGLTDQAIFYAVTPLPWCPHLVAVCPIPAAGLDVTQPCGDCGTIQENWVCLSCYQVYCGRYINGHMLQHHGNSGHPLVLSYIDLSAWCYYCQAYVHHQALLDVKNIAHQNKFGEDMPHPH

[3] = Metabolic stability in rat liver microsomes assessed as parent compound remaining at 10 ug/ml measured after 1 hr in the presence of NADPH by HPLC analysis; format: ADME, Microsome; details: microsomes, 1 h, at 10 µg/mL
L02 = assay: cells; format: ADME, cell-based; details: Homo sapiens, L02, 72 h
Description: Cytotoxicity against human L02 cells assessed as reduction in cell viability measured after 72 hrs by MTT assay

Row | Structure (SMILES) | pIC50 (MCF7) | pIC50 (A549) | pIC50 (HCT-116) | pIC50 (HeLa) | pIC50 (CNE-2) | pIC50 (HepG2) | pIC50 (MDA-MB-231) | pIC50 (Huh-7) | inhibition [1] [%] | pIC50 (Hep 3B2) | pIC50 (SK-HEP1) | pIC50 (SNU-423) | pIC50 (Bel-7402) | inhibition [2] [%] | Stabilty [3] | pIC50 (PLC-PRF-5) | pIC50 (L02)
1 | Nc1nc2cc(-c3nn(CC(=O)NO)c4ncnc(N)c34)ccc2o1 | < 4.00 | 4.56 | 4.94 | < 3.82 | 4.91 | < 3.82 | 5.20 | – | – | – | – | – | – | – | – | – | –
2 | Nc1ncnc2c1c(-c1cnc3[nH]ccc3c1)nn2CCCC(=O)NO | < 3.82 | < 3.82 | < 3.82 | – | < 3.82 | < 4.30 | < 3.82 | – | – | – | – | – | – | – | – | – | –
3 | Nc1nc2cc(-c3nn(CCCCCCCCCC(=O)NO)c4ncnc(N)c34)ccc2o1 | < 4.30 | < 4.30 | 4.64 | < 4.30 | 4.43 | 4.54 | < 4.30 | 4.38 | 92.4 | 4.54 | 4.85 | < 4.30 | < 4.30 | 98.2 | – | < 4.00 | –
4 | Nc1ncnc2c1c(-c1cnc3[nH]ccc3c1)nn2CC(=O)NO | < 3.82 | < 3.82 | < 3.82 | – | < 3.82 | < 3.82 | < 3.82 | – | – | – | – | – | – | – | – | – | –
5 | Nc1ncnc2c1c(-c1cnc3[nH]ccc3c1)nn2CCC(=O)NO | < 3.82 | < 3.82 | < 3.82 | – | < 3.82 | < 3.82 | < 3.82 | – | – | – | – | – | – | – | – | – | –
6 | Nc1ncnc2c1c(-c1cnc3[nH]ccc3c1)nn2CCCCCC(=O)NO | < 3.82 | < 3.82 | 4.20 | < 3.82 | < 4.30 | 4.89 | < 4.00 | < 4.00 | – | < 4.30 | < 3.82 | – | – | – | – | < 3.82 | –
7 | Nc1ncnc2c1c(-c1cnc3[nH]ccc3c1)nn2CCCCCCCCCC(=O)NO | 4.63 | 5.18 | 4.73 | 5.12 | 5.66 | 4.93 | 4.99 | 5.00 | 97.6 | 4.77 | 4.63 | 5.09 | 4.38 | 98.3 | – | 4.47 | –
8 | O=C(CCCCCCC(=O)Nc1ccccc1)NO [VORINOSTAT] | – | – | – | – | – | – | – | – | – | – | – | 7.10 | 4.56 | – | Stable | 5.65 | –
9 | Nc1nc2cc(-c3nn(CCCC(=O)NO)c4ncnc(N)c34)ccc2o1 | < 4.30 | < 4.00 | 4.71 | < 3.82 | < 4.30 | < 4.30 | 4.71 | – | – | – | – | – | – | – | – | – | –
10 | Nc1ncnc2c1c(-c1cnc3[nH]ccc3c1)nn2CCCCC(=O)NO | < 3.82 | < 3.82 | < 3.82 | < 3.82 | < 3.82 | 4.44 | < 4.30 | – | – | – | – | – | – | – | – | – | –
11 | Nc1nc2cc(-c3nn(CCC(=O)NO)c4ncnc(N)c34)ccc2o1 | < 4.00 | < 3.82 | < 4.00 | < 3.82 | < 3.82 | < 3.82 | < 4.30 | – | – | – | – | – | – | – | – | – | –
12 | Nc1nc2cc(-c3nn(CCCCCCCCC(=O)NO)c4ncnc(N)c34)ccc2o1 | 4.38 | 4.88 | 5.53 | 4.99 | 5.49 | 5.58 | 4.52 | 5.83 | 99.3 | 5.05 | < 4.00 | 5.31 | < 4.00 | 99 | – | 4.62 | –

The remaining compounds from weak to strong by pIC50 (MCF7), led by results:

Row | pIC50 (MCF7) | pIC50 (A549) | pIC50 (HCT-116) | pIC50 (HeLa) | pIC50 (CNE-2) | pIC50 (HepG2) | pIC50 (MDA-MB-231) | pIC50 (Huh-7) | inhibition [1] [%] | pIC50 (Hep 3B2) | pIC50 (SK-HEP1) | pIC50 (SNU-423) | pIC50 (Bel-7402) | inhibition [2] [%] | Stabilty [3] | Structure (SMILES) | pIC50 (PLC-PRF-5) | pIC50 (L02)
13 | 4.70 | 4.30 | 5.01 | 4.66 | 4.71 | 4.99 | 4.42 | 4.29 | 98.7 | 4.58 | 4.83 | 5.12 | 4.51 | 99.1 | – | Nc1ncnc2c1c(-c1cnc3[nH]ccc3c1)nn2CCCCCCC(=O)NO | < 4.30 | –
14 | 4.85 | < 4.00 | 4.47 | 4.49 | < 4.30 | 5.68 | 4.67 | 5.04 | 99.4 | 4.47 | 5.19 | 5.52 | 5.62 | 95.1 | – | Nc1nc2cc(-c3nn(CCCCC(=O)NO)c4ncnc(N)c34)ccc2o1 | 4.53 | –
15 | 4.91 | < 4.00 | 4.67 | 4.81 | 4.43 | 5.70 | 4.72 | 5.00 | 100 | 4.47 | 5.51 | 4.90 | 5.69 | 97.8 | – | Nc1nc2cc(-c3nn(CCCCCC(=O)NO)c4ncnc(N)c34)ccc2o1 | < 4.30 | –
16 | 5.12 | 4.29 | 5.17 | 4.54 | 5.05 | 5.25 | 4.80 | 4.63 | 98.7 | 4.79 | 5.40 | 5.27 | 4.76 | 100 | – | Nc1ncnc2c1c(-c1cnc3[nH]ccc3c1)nn2CCCCCCCC(=O)NO | 4.44 | –
17 | 7.28 | 6.76 | 7.32 | 7.44 | 7.00 | 5.67 | 7.51 | 8.15 | – | 5.35 | 8.10 | 7.82 | < 4.00 | – | Stable | CC(C)n1nc(-c2ccc3oc(N)nc3c2)c2c(N)ncnc21 [SAPANISERTIB] | 5.18 | 6.55
